Experimental data taken from US5023266A, “Method of treatment of psychotic disorders” (Synthelabo, priority 1989, dated 1991).
pIC50: −log10 of the molar value.

Biological target: σ-receptor
Assay: Inhibition of [3H]-(+)-3-PPP binding to the σ-receptor in rat cerebral cortex membranes
Settings: 2nM [3H]-(+)-3-PPP, 90 min at 25° C., non-specific binding defined with 1μM haloperidol, read-out: IC50, concentration which inhibits 50 percent of the [3H]-(+)-3-PPP binding
Description: In particular their inhibitory activity on the binding of [^3 H](+)3(3-hydroxyphenyl)-N-(1-propyl)-piperidine, or [^3 H]-(+)-3-PPP, to the σ-receptor in the cerebral cortex of rats has been studied, essentially as described in J. Pharmacol. Exp. Ther., 238, 739-748, (1986). Male Sprague-Dawley rats (150-200 g) were sacrificed, and the cerebral cortex was homogenized in 25 volumes of ice-cold Tris-HCl buffer (pH 7.4 at 25° C.) with the use of an Ultra-Turrax™ polytron. The homogenate was washed twice by centrifugation (10 min at 45,000g) and intermittent resuspension of the resulting pellet in fresh buffer. The final pellet was resuspended in 20 volumes of 50mM Tris-HCl buffer (pH 8.0 at 22° C.). A 75 μl aliquot of this membrane preparation was then incubated in a final volume of 250 μl with 2nM [^3 H]-(+)-3-PPP (specific activity 90 Ci/mmol; New England Nuclear) for 90 min at 25° C., in the absence or in the presence of competing drugs. After incubation, the membranes were recovered by filtration over 0.05% polyethyleneimine-pretreated Whatman™ GF/B filters using a Skatron™ Cell Harvester, and washed with ±2.5 ml of ice-cold 50mM Tris-HCl buffer (pH 7.7 at 0° C.). Non-specific binding was defined with 1μM haloperidol.
Data were analyzed by conventional graphical techniques and least-squares regression analysis where appropriate.
The following Table indicates the IC50 of the compounds, i.e. the concentration (μM) which inhibits 50 percent of the [^3 H]-(+)-3-PPP.

pIC50	Compound
8.04	OC(CN1CCC(Cc2ccc(F)cc2)CC1)c1ccc(Cl)cc1 (single isomer, unassigned) [Compound 6]
8.10	C[C@@H]([C@H](O)c1ccc(O)cc1)N1CCC(Cc2ccccc2)CC1 (relative stereo) [Compound 1]
8.00	C[C@H]([C@H](O)c1ccc(O)cc1)N1CCC(Cc2ccccc2)CC1 (relative stereo) [Compound 2]
8.15	C[C@@H]([C@H](O)c1ccc(O)cc1)N1CCC(Cc2ccccc2)CC1 (single isomer, unassigned) [Compound 4]
8.52	OC(CN1CCC(Cc2ccc(F)cc2)CC1)c1ccc(Cl)cc1 (racemic) [Compound 5]
7.82	C[C@@H]([C@H](O)c1ccc(O)cc1)N1CCC(Cc2ccccc2)CC1 (single isomer, unassigned) [Compound 3]
8.01	OC(CN1CCC(Cc2ccc(F)cc2)CC1)c1ccc(Cl)cc1 (single isomer, unassigned) [Compound 7]
